Experimental data taken from publication PMC11415492 (Nature Communications, 2024).
Values joined by “and” are separate entries in the source; they are usually repeats but may differ in a detail not shown here. Identical values can stand only once. “Also recorded” adds a separate entry of the source. Counter-ions that a name gives are not always drawn.

Assays:
hKOR [1] = target: T1, hKOR (Homo sapiens, UniProt P41145); experiment: KOR [35S]GTPγS agonist assay (commercial); assay type: biochemical; details: Log [Drug]
T1 construct: expressed in transfected cells; host or cells: HEK-293T, transient (PEI)
T1 sequence (P41145 whole entry): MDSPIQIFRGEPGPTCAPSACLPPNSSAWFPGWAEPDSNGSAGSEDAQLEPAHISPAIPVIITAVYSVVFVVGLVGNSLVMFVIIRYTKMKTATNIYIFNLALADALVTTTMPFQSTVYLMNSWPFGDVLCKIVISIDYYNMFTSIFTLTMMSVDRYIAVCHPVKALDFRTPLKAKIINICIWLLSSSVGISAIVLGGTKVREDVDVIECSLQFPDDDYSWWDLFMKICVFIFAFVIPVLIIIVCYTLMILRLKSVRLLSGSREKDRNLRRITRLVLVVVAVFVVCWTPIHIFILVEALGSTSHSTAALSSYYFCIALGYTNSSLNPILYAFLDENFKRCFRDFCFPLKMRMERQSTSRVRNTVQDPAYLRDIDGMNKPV

hKOR [2] = target: T1, hKOR; experiment: G protein activation BRET assay; assay type: cell-based; details: for EC50: HEK-293T, (95% CI); for % effect at 100 µM: n = 4
hSERT = target: T2, hSERT (Homo sapiens, UniProt P31645); experiment: hSERT inhibition assay (APP+ fluorescence uptake); assay type: cell-based
T2 construct: expressed in transfected cells
T2 sequence (P31645 whole entry): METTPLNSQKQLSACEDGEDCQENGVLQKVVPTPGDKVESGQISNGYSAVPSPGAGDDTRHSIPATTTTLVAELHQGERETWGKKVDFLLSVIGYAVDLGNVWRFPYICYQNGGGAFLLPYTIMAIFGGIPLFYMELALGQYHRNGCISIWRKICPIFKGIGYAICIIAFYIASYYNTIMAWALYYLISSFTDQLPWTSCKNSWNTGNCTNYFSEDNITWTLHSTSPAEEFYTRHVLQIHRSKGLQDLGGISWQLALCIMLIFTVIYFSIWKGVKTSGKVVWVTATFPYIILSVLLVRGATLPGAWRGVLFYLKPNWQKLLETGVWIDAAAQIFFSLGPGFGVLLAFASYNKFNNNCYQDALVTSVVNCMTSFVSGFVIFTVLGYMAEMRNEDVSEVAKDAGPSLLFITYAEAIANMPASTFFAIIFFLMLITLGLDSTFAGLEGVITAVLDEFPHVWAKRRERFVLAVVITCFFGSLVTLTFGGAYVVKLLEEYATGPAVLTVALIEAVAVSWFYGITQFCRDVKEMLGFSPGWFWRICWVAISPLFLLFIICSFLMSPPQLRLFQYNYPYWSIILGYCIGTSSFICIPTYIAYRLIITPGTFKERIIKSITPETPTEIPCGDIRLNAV
Description: Stably transfected hSERT-HEK cellular cultures were maintained in Dulbecco’s Minimal Essential Medium (DMEM) with GlutaMAX (Gibco-Thermo Fisher Scientific, Waltham, MA) with the following additions: 10% (v/v) Fetal Bovine Serum (FBS, Atlanta Biologicals, Flowery Branch, GA), 100 U/mL Penicillin 10 μg/mL Streptomycin (Gibco-Thermo Fisher Scientific, Waltham, MA), and 500 μg/mL Geneticin (G418) (Sigma Aldrich, St. Louis, MO). Singly transfected cells were seeded at a density of 0.09 × 10^6 cells/well in poly-D-Lysine (Sigma Aldrich, St. Louis, MO) coated white solid-bottom 96-well plates (Greiner Bio-One, Kremsmünster, Austria). Cells were grown for 44 h in aqueous media at 37 °C under 5% CO2 atmosphere. […] A final solution of 120 μL of PBS was finally added to all corresponding wells for cell maintenance before measuring fluorescence uptake (BioTek H1MF plate reader (BioTek Instruments, Winooski, VT), APP+ excitation and emission wavelengths 436 and 500 nm). Recorded inhibitor values were first subtracted from vehicular values to quantify the respective fluorescence uptake. Data were analyzed using the dose-response-inhibitor nonlinear curve fitting model (log[inhibitor] vs response (four parameters) in Graphpad Prism 10 (Graphpad Software, La Jolla, CA).

monkeys = details: daily dosing prior to SA sessions (14 days); cited from earlier work
mice = experiment: Open field test (locomotion, sedation); assay type: in vivo, mouse; design: unit not given here; details: groups not marked Female
Description: Mice were transferred to the testing room 30 min before the experiment to allow for acclimation. Body weight of each mouse was recorded. For experiments with antagonist, pre-treatment, the dosing and after application wait times were the same as for the tail-flick test. Mice were administered an ED50, ED80 or >ED95 doses of test compound (volume of injection 290–350 µL based on body weight). After injection, mice were returned to the home cage and allowed to rest for 30 min. Each mouse was then gently placed in the center of a clear Plexiglas arena (27.31 × 27.31 × 20.32 cm, Med Associates ENV-510) lit with dim light ( ~ 5 lux) and allowed to ambulate freely for 60 minutes. The locomotion of the mouse was tracked by infrared beams embedded along the X, Y, Z axes of the area and automatically recorded. Data was collected on Activity Monitor by Med Associates.
Statistical analysis was performed using the unpaired t-test, two-tailed with Welch’s correction to analyze total locomotion and a two-way ANOVA with Šidák’s multiple comparison test for post hoc comparison to analyze locomotion across time bins.

male Fisher F-344 rats = details: preclinical assays in rats; cited from earlier work
GDNF = GDNF expression studies (ELISA, brain regions); assay type: in vivo, rat; details: aticaprant 1 mg/kg s.c. before oxa-noribogaine 40 mg/kg i.p.
Description: One day or five days after drug administration, rats from these groups as well as non-treated controls were decapitated, brains removed and placed in a stainless-steel rat brain matrix. Coronal slices were taken and the ventral tegmental area (VTA), nucleus accumbens (NAc) and medial prefrontal cortex (mPFC) were dissected and immediately frozen on dry ice. Total protein was isolated from pulverized tissue (8–15 mg tissue per region was harvested from one subject) from these regions. GDNF contents were assayed using the BiosSensis GDNF, Rat, Rapid™ ELISA assay (Biosensis Pty Ltd, SA, Australia). Protease (Thermo Scientific, Rockford, IL), and phosphatase inhibitors (Cocktails 1 and 2, Sigma-Aldrich, St. Louis, MO) were added to the extraction buffers. Regardless of sample weight 230uL of RIPA buffer (Sigma; R0278) was added into each sample along with protease inhibitors. […] Protein concentrations were measured using the bicinchoninic acid protein assay kit (Pierce, Rockford, IL, USA) on a spectrophotometer (iD5, Molecular Devices, Sunnyvale, CA). […] In a separate cohort, we assessed the ability of the kappa antagonist aticaprant to attenuate the oxa-noribogaine induced increase in GDNF in the VTA and mPFC five days after administration. […] Data were analyzed by protein and region using one way ANOVA with Tukey’s multiple comparison test for post hoc comparison.

male rats = details: cited from earlier work

## CC[C@H]1C[C@H]2C[C@H]3c4[nH]c5ccc(O)cc5c4CCN(C2)[C@@H]13 [NORIBO]
hKOR [1]; M = -4
  response, Fig. S5a concentration-response point: 66
hKOR [1]; M = -4.5
  response, Fig. S5a concentration-response point: 55
hKOR [1]; M = -5
  response, Fig. S5a concentration-response point: 39
hKOR [1]; M = -5.5
  response, Fig. S5a concentration-response point: 20
hKOR [1]; M = -6
  response, Fig. S5a concentration-response point: 7
hKOR [1]; M = -6.5
  response, Fig. S5a concentration-response point: 2

## Epi-oxa-ibogamine
hKOR [2]
  EC50: > 10 µM
  % effect at 100 µM: 46%

## CN(C)CCCN1c2ccccc2CCc2ccccc21 [Imipramine, imipramine hydrochloride]
hSERT
  Emax: 100%

## C[C@H]1CNCCc2ccc(Cl)cc21 [Lorcaserin, lorcaserin]
monkeys
  suppression of cocaine SA: the suppression effect completely dissipated as soon as the treatment ended

## Cc1cc(C)cc([C@@H]2CCCN2Cc2ccc(Oc3ccc(C(N)=O)cc3F)cc2)c1 [Aticaprant (ATI)]
mice
  Open field total locomotion, individual animals (Fig. 3h source data): 98.5549 and 70.7237 and 76.3275 and 70.7309 and 115.865 and 89.5078 and 98.6683 and 78.3135

## Oxa-ibogamine
hKOR [2]
  EC50: > 10 µM
  % effect at 100 µM: 56%

## COCC[C@H]1CC2CN3CCc4c([nH]c5ccccc45)[C@](C(=O)OC)(C2)[C@H]13 [18MC, 18-methoxycoronaridine]
Male Fisher F-344 rats
  effect on morphine intake: efficacy and duration of effect on morphine intake comparable to ibogaine and noribogaine

## Cc1cc(C)cc([C@@H]2CCCN2Cc2ccc(Oc3ccc(C(N)=O)cc3F)cc2)c1 [aticaprant]
GDNF
  effect of pre-treatment on oxa-noribogaine-induced GDNF increase: the induction of GDNF was blocked in both mPFC and VTA; also recorded: prevents the increase of GDNF expression in mPFC and VTA

## COc1ccc2c3c([nH]c2c1)CCN(C)CC3 [TBG]
Male rats
  effect on heroin SA: no lasting effect on heroin SA
